From patent US20260200897A1, “4-((5-(3-(4-(PYRIDIN-2-YL)CYCLOPENTYL)-1H-PYRAZOL-3-YL)AMINO)-BENZENESULFONAMIDE DERIVATIVES AND SIMILAR COMPOUNDS AS CDK INHIBITORS FOR THE TREATMENT OF CANCER” (BeOne Medicines I GmbH, priority 2023, published 2026)

What was measured:
CDK2/Cyclin E1 = CDK2/Cyclin E1 (Homo sapiens, UniProt P24941); experiment: CDK2/Cyclin E1 TR-FRET biochemical assay, 1 mM ATP; settings: 0.15 μM Rb (Ser780)-biotin substrate, 90 min reaction, Table 2
Description: (§1) Compounds disclosed herein were tested for inhibition of CDK2/Cyclin E1 or CDK1/Cyclin B kinase in an assay based on the time-resolved fluorescence-resonance energy transfer (TR-FRET) methodology. The assay was carried out in 384-well low volume black plates in a reaction mixture containing CDK2/Cyclin E1 or CDK1/Cyclin B1, 1 mM ATP for CDK2/Cyclin E1 and CDK1/Cyclin B1, 0.15 μM Rb (Ser780)-biotin substrate and 0-10 μM compound in buffer containing 50 mM HEPES pH7.0, 0.02% NaN3, 0.01% BSA, 0.1 mM Orthovanadate, 50 mM MgCl2, 1 mM DTT and 0.005% Tween-20. The kinase was incubated with compound for 60 minutes at room temperature and the reaction was initiated by the addition of ATP and Rb (Ser780)-biotin substrate. After reaction at room temperature for 90 minutes, an equal volume of stop/detection solution was added according to the manufacture's instruction (Cisbio Bioassays). The stop/detection solution contained Streptavidin-XL665 and Anti-pRb (Ser780) mAb-Eu Cryptate in Detection buffer (Cisbio Bioassays). Plates were incubated at room temperature for 60 minutes, and the TR-FRET signals (ex337 nm, em665 nm/620 nm) were recorded on a PHERAstar FSX plate reader (BMG Labtech). The inhibition percentage of CDK2/Cyclin E1 or CDK1/Cyclin B1 kinase activity in presence of increasing concentrations of compounds was calculated based on the ratio of fluorescence at 665 nm to that at 620 nm. The IC50 for each compound was derived from fitting the data to the four-parameter logistic equation by Dotmatics.

CDK1/Cyclin B1 = CDK1/Cyclin B1 (Homo sapiens, UniProt P06493); experiment: CDK1/Cyclin B1 TR-FRET biochemical assay, 1 mM ATP; settings: 0.15 μM Rb (Ser780)-biotin substrate, 90 min reaction, Table 2
Description: as §1

Chain of CDK1/Cyclin B1 (P06493 whole entry): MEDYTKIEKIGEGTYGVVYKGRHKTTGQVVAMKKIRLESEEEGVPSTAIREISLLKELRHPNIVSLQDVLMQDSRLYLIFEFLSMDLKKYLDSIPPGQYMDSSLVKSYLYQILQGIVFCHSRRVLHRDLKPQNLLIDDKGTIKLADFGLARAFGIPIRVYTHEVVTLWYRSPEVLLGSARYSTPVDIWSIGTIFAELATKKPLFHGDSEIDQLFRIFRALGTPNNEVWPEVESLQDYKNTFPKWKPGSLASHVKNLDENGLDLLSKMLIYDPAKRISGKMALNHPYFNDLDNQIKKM
Chain of CDK1/Cyclin B1 (P14635 whole entry partner): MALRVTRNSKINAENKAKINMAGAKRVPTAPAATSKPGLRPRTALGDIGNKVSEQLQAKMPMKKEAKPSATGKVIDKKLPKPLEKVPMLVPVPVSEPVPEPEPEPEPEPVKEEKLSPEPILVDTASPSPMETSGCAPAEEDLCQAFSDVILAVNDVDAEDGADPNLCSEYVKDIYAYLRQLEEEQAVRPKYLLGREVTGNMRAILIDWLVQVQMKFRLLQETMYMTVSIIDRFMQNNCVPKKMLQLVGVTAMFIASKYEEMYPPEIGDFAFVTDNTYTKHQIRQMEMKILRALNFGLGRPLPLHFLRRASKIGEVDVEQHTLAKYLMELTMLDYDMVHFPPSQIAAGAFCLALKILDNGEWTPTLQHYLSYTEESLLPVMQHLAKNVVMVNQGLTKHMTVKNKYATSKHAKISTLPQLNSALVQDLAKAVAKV

IC50 (CDK2/Cyclin E1) [µM]	IC50 (CDK1/Cyclin B1) [µM]	Compound
2.76	> 10	COc1cccc(C2CCC(c3cc(Nc4cc5c(cc4F)S(=O)(=O)NC5)n[nH]3)C2)n1 (centres unmarked) [Example 11, 6-fluoro-5-((5-(3-(6-methoxypyridin-2-yl)cyclopentyl)-1H-pyrazol-3-yl)amino)-2,3-dihydrobenzo[d]isothiazole 1,1-dioxide]
3.99	> 10	Cc1cccc(C2CCC(c3cc(Nc4cc5c(cc4F)S(=O)(=O)NC5)n[nH]3)C2)n1 (centres unmarked) [Example 12, 6-fluoro-5-((5-(3-(6-methylpyridin-2-yl)cyclopentyl)-1H-pyrazol-3-yl)amino)-2,3-dihydrobenzo[d]isothiazole 1,1-dioxide]
0.462	> 10	CC(C)(C)c1ccnc(C2CCC(c3cc(Nc4cc5c(cc4F)S(=O)(=O)NC5)n[nH]3)C2)c1 (centres unmarked) [Example 13, 5-((5-(3-(4-(tert-butyl)pyridin-2-yl)cyclopentyl)-1H-pyrazol-3-yl)amino)-6-fluoro-2,3-dihydrobenzo[d]isothiazole 1,1-dioxide]
0.369	> 10	CC(C)(C)c1cnnc(C2CCC(c3cc(Nc4cc5c(cc4F)S(=O)(=O)NC5)n[nH]3)C2)c1 (centres unmarked) [Example 14, 5-((5-(3-(5-(tert-butyl)pyridazin-3-yl)cyclopentyl)-1H-pyrazol-3-yl)amino)-6-fluoro-2,3-dihydrobenzo[d]isothiazole 1,1-dioxide]
0.0037	1.06	CC(C)(C)c1ccnc(C2CCC(c3cc(Nc4cc5c(cc4F)S(=O)(=O)NC5)n[nH]3)C2)n1 (centres unmarked) [Example 15, 5-((5-(3-(4-(tert-butyl)pyrimidin-2-yl)cyclopentyl)-1H-pyrazol-3-yl)amino)-6-fluoro-2,3-dihydrobenzo[d]isothiazole 1,1-dioxide]
0.012	2.49	CC(C)c1ccnc(C2CCC(c3cc(Nc4cc5c(cc4F)S(=O)(=O)NC5)n[nH]3)C2)n1 (centres unmarked) [Example 16, 6-fluoro-5-((5-(3-(4-isopropylpyrimidin-2-yl)cyclopentyl)-1H-pyrazol-3-yl)amino)-2,3-dihydrobenzo[d]isothiazole 1,1-dioxide]
0.042	> 10	CC(C)c1cnc(C2CCC(c3cc(Nc4cc5c(cc4F)S(=O)(=O)NC5)n[nH]3)C2)o1 (centres unmarked) [Example 18, 6-fluoro-5-((5-(3-(5-isopropyloxazol-2-yl)cyclopentyl)-1H-pyrazol-3-yl)amino)-2,3-dihydrobenzo[d]isothiazole 1,1-dioxide]
0.043	> 10	Cc1nc(C2CCC(c3cc(Nc4cc5c(cc4F)S(=O)(=O)NC5)n[nH]3)C2)oc1C(C)(C)C (centres unmarked) [Example 19, 5-((5-(3-(5-(tert-butyl)-4-methyloxazol-2-yl)cyclopentyl)-1H-pyrazol-3-yl)amino)-6-fluoro-2,3-dihydrobenzo[d]isothiazole 1,1-dioxide]
0.073	> 10	O=S1(=O)NCc2cc(Nc3cc(C4CCC(c5ncc(C6CC6)o5)C4)[nH]n3)c(F)cc21 (centres unmarked) [Example 20, 5-((5-(3-(5-cyclopropyloxazol-2-yl)cyclopentyl)-1H-pyrazol-3-yl)amino)-6-fluoro-2,3-dihydrobenzo[d]isothiazole 1,1-dioxide]
0.417	> 10	CC(C)(C)c1coc(C2CCC(c3cc(Nc4ccc5c(c4F)CNS5(=O)=O)n[nH]3)C2)n1 (centres unmarked) [Example 94, 5-((5-(3-(4-(tert-butyl)oxazol-2-yl)cyclopentyl)-1H-pyrazol-3-yl)amino)-4-fluoro-2,3-dihydrobenzo[d]isothiazole 1,1-dioxide]
7.2	> 10	CC(C)(C)c1cnc(C2CCC(c3cc(Nc4ccc5c(c4F)CNS5(=O)=O)n[nH]3)C2)s1 (centres unmarked) [Example 95, 5-((5-(3-(5-(tert-butyl)thiazol-2-yl)cyclopentyl)-1H-pyrazol-3-yl)amino)-4-fluoro-2,3-dihydrobenzo[d]isothiazole 1,1-dioxide]
0.453	> 10	CC(C)(C)n1ccc(C2CCC(c3cc(Nc4ccc5c(c4F)CNS5(=O)=O)n[nH]3)C2)n1 (centres unmarked) [Example 98, 5-((5-(3-(1-(tert-butyl)-1H-pyrazol-3-yl)cyclopentyl)-1H-pyrazol-3-yl)amino)-4-fluoro-2,3-dihydrobenzo[d]isothiazole 1,1-dioxide]
3.29	> 10	CC(C)(C)n1cc(C2CCC(c3cc(Nc4ccc5c(c4F)CNS5(=O)=O)n[nH]3)C2)cn1 (centres unmarked) [Example 99, 5-((5-(3-(1-(tert-butyl)-1H-pyrazol-4-yl)cyclopentyl)-1H-pyrazol-3-yl)amino)-4-fluoro-2,3-dihydrobenzo[d]isothiazole 1-dioxide]
0.173	> 10	CC(C)(C)c1cc(C2CCC(c3cc(Nc4ccc5c(c4F)CNS5(=O)=O)n[nH]3)C2)[nH]n1 (centres unmarked) [Example 100, 5-((5-(3-(3-(tert-butyl)-1H-pyrazol-5-yl)cyclopentyl)-1H-pyrazol-3-yl)amino)-4-fluoro-2,3-dihydrobenzo[d]isothiazole 1,1-dioxide]
0.564	> 10	CC(C)(O)c1cc(C2CCC(c3cc(Nc4ccc5c(c4F)CNS5(=O)=O)n[nH]3)C2)n[nH]1 (centres unmarked) [Example 101, 4-fluoro-5-((5-(3-(5-(2-hydroxypropan-2-yl)-1H-pyrazol-3-yl)cyclopentyl)-1H-pyrazol-3-yl)amino)-2,3-dihydrobenzo[d]isothiazole 1,1-dioxide]
0.813	> 10	CC(C)(O)Cn1cc(C2CCC(c3cc(Nc4ccc5c(c4F)CNS5(=O)=O)n[nH]3)C2)cn1 (centres unmarked) [Example 102, 4-fluoro-5-((5-(3-(1-(2-hydroxy-2-methylpropyl)-1H-pyrazol-4-yl)cyclopentyl)-1H-pyrazol-3-yl)amino)-2,3-dihydrobenzo[d]isothiazole 1,1-dioxide]
> 10	> 10	CC(C)(C)c1cnc(C2CCC(c3cc(Nc4ccc5c(c4F)CNS5(=O)=O)n[nH]3)C2)[nH]1 (centres unmarked) [Example 103, 5-((5-(3-(5-(tert-butyl)-1H-imidazol-2-yl)cyclopentyl)-1H-pyrazol-3-yl)amino)-4-fluoro-2,3-dihydrobenzo[d]isothiazole 1,1-dioxide]
1.79	> 10	CC(C)(C)C1CCC(C2CCC(c3cc(Nc4ccc5c(c4F)CNS5(=O)=O)n[nH]3)C2)O1 (centres unmarked) [Example 104, 5-((5-(3-(5-(tert-butyl)tetrahydrofuran-2-yl)cyclopentyl)-1H-pyrazol-3-yl)amino)-4-fluoro-2,3-dihydrobenzo[d]isothiazole 1,1-dioxide]
0.812	> 10	CC(C)c1ncc(C2CCC(c3cc(Nc4ccc5c(c4F)CNS5(=O)=O)n[nH]3)C2)o1 (centres unmarked) [Example 105, 4-fluoro-5-((5-(3-(2-isopropyloxazol-5-yl)cyclopentyl)-1H-pyrazol-3-yl)amino)-2,3-dihydrobenzo[d]isothiazole 1,1-dioxide]
1.05	> 10	O=S1(=O)NCc2c1ccc(Nc1cc(C3CCC(c4cnc(C5CC5)o4)C3)[nH]n1)c2F (centres unmarked) [Example 106, 5-((5-(3-(2-cyclopropyloxazol-5-yl)cyclopentyl)-1H-pyrazol-3-yl)amino)-4-fluoro-2,3-dihydrobenzo[d]isothiazole 1,1-dioxide]
0.032	7.24	CC(C)(O)c1cnc(C2CCC(c3cc(Nc4ccc5c(c4F)CNS5(=O)=O)n[nH]3)C2)o1 (centres unmarked) [Example 110, 4-fluoro-5-((5-(3-(5-(2-hydroxypropan-2-yl)oxazol-2-yl)cyclopentyl)-1H-pyrazol-3-yl)amino)-2,3-dihydrobenzo[d]isothiazole 1,1-dioxide]
0.017	4.47	Cc1nc(C2CCC(c3cc(Nc4ccc5c(c4F)CNS5(=O)=O)n[nH]3)C2)oc1C(C)(C)C (centres unmarked) [Example 111, 5-((5-(3-(5-(tert-butyl)-4-methyloxazol-2-yl)cyclopentyl)-1H-pyrazol-3-yl)amino)-4-fluoro-2,3-dihydrobenzo[d]isothiazole 1,1-dioxide]
0.016	6.85	CC1(c2cnc(C3CCC(c4cc(Nc5ccc6c(c5F)CNS6(=O)=O)n[nH]4)C3)o2)CC1 (centres unmarked) [Example 112, 4-fluoro-5-((5-(3-(5-(1-methylcyclopropyl)oxazol-2-yl)cyclopentyl)-1H-pyrazol-3-yl)amino)-2,3-dihydrobenzo[d]isothiazole 1,1-dioxide]
0.235	> 10	COC(=O)c1nc(C2CCC(c3cc(Nc4ccc5c(c4F)CNS5(=O)=O)n[nH]3)C2)oc1C(C)(C)C (centres unmarked) [Example 113, methyl 5-(tert-butyl)-2-(3-(3-((4-fluoro-1,1-dioxido-2,3-dihydrobenzo[d]isothiazol-5-yl)amino)-1H-pyrazol-5-yl)cyclopentyl)oxazole-4-carboxylate]
0.429	> 10	CCOC(=O)c1nc(C2CCC(c3cc(Nc4ccc5c(c4F)CNS5(=O)=O)n[nH]3)C2)oc1C(C)(C)C (centres unmarked) [Example 114, ethyl 5-(tert-butyl)-2-(3-(3-((4-fluoro-1,1-dioxido-2,3-dihydrobenzo[d]isothiazol-5-yl)amino)-1H-pyrazol-5-yl)cyclopentyl)oxazole-4-carboxylate]
